Assay results published in patent US8318762B2, “Pyrazolospiroketone acetyl-CoA carboxylase inhibitors” (Pfizer Inc., priority 2008, dated 2012).

target: T1, recombinant human ACC2 (Homo sapiens, UniProt O00763); experiment: Measurement of human ACC2 inhibition (recombinant hACC2 Transcreener ADP detection FP assay); type: biochemical; conditions: recombinant hACC2 transcreener assay; read-out: rhACC2 IC50
T1 construct: a full length Cytomax clone of ACC2 was purchased from Cambridge Bioscience Limited; made in house; host or cells: CHO cells (tetracycline induction, pcDNA5 FRT TO-TOPO); purified on a Softlink Soft Release Avidin column
Protocol: [3] Measurement of human ACC2 inhibition. Human ACC2 inhibition was measured using purified recombinant human ACC2 (hrACC2). […] The ACC2 was expressed in CHO cells by tetracycline induction and harvested in 5 liters of DMEM/F12 with glutamine, biotin, hygromycin and blasticidin with 1 μg/mL tetracycline (Invitrogen, Carlsbad, Calif.). The conditioned medium containing ACC2 was then applied to a Softlink Soft Release Avidin column (Promega, Madison, Wis.) and eluted with 5 mM biotin. […] The purified ACC2 was dialyzed in 50 mM Tris, 200 mM NaCl, 4 mM DTT, 2 mM EDTA, and 5% glycerol. […] The final conditions for the assay were 50 mM HEPES, pH7.5, 5 mM MgCl2, 5 mM tripotassium citrate, 2 mM DTT, 0.5 mg/mL BSA, 30 μM acetyl-CoA, 50 μM ATP, and 8 mM KHCO3. Typically, a 10 μl reaction was run for 1 hour at room temperature, and 10 μl of Transcreener stop and detect buffer was added and incubated for an additional 1 hour.

T1 sequence (O00763 whole entry): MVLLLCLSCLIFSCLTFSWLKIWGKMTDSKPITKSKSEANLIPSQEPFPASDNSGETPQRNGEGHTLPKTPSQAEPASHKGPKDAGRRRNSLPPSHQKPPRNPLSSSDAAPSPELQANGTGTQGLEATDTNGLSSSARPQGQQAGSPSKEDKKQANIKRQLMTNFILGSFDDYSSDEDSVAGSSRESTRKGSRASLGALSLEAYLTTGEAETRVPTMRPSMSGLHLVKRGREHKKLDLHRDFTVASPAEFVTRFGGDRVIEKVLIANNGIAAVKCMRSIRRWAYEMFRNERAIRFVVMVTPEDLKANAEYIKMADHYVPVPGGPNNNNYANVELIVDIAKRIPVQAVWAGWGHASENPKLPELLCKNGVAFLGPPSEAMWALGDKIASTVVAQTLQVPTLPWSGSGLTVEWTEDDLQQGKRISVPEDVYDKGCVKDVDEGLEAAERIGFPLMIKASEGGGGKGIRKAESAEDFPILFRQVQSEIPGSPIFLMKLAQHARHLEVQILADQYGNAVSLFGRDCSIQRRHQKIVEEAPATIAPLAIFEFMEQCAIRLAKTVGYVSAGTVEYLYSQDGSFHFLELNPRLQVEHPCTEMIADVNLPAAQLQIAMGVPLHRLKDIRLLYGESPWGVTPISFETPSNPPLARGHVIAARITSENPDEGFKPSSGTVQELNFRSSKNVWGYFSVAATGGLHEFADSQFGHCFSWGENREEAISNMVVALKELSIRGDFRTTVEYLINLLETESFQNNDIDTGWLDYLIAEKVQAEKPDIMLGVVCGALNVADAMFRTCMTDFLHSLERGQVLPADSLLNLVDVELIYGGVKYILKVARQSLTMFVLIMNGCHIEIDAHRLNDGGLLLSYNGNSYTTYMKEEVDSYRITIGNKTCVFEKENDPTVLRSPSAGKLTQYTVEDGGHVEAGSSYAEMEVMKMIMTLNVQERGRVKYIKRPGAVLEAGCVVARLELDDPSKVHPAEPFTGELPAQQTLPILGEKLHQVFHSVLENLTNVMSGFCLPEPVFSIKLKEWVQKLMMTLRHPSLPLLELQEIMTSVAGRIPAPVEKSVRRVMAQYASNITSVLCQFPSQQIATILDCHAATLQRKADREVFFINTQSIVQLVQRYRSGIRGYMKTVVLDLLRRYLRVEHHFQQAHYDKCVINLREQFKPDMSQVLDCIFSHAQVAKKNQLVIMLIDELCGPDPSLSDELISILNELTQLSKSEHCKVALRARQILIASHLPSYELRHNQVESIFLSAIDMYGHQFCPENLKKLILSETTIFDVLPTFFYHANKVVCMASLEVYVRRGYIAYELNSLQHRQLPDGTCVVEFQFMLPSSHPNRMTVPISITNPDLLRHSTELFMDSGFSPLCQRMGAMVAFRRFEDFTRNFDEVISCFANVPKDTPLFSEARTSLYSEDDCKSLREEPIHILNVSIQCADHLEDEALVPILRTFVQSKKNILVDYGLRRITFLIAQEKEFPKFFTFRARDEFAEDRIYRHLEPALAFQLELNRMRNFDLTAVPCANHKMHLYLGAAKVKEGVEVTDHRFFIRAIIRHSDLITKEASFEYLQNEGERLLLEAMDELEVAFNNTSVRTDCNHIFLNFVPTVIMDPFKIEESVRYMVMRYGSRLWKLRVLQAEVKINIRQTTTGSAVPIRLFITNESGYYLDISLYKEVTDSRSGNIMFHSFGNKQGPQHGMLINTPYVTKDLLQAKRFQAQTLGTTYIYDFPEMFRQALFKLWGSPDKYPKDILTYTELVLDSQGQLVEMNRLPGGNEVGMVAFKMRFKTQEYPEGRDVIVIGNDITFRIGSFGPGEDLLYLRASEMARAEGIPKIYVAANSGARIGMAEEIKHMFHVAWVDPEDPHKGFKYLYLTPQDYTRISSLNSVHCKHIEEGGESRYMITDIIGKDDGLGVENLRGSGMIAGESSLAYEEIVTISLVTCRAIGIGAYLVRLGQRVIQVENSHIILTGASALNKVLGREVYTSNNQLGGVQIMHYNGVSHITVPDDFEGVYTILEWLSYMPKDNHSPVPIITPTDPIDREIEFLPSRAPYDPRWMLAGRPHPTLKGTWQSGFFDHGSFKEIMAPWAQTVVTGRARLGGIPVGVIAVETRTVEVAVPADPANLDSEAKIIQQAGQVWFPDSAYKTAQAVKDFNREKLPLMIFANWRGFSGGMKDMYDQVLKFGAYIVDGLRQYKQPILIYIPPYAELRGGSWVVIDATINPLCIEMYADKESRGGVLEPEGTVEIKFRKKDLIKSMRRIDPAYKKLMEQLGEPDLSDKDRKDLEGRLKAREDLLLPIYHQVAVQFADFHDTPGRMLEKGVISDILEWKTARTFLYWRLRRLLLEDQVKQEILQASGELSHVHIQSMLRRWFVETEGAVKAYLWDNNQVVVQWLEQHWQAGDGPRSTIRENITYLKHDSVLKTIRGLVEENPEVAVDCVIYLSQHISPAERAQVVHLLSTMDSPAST

SMILES | IC50 [nM]
Cc1nc2c(F)cc(C(=O)N3CCC4(CC3)CC(=O)c3nn(C(C)(C)C)cc3O4)cc2[nH]1 [3.019] | 17
CCn1nc2c(c1C)OC1(CCN(C(=O)c3cc(F)c4nc[nH]c4c3)CC1)CC2=O [3.020] | 139
CC(C)n1cc2c(n1)C(=O)CC1(CCN(C(=O)c3cc(F)c4nc[nH]c4c3)CC1)O2 [3.021] | 39
CC(C)(C)n1cc2c(n1)C(=O)CC1(CCN(C(=O)c3cc(F)c4nc[nH]c4c3)CC1)O2 [3.022] | 14
Cc1cc(C(=O)N2CCC3(CC2)CC(=O)c2nn(C(C)(C)C)cc2O3)cc2c1ncn2C [3.023] | 15
Cc1nc2c(F)cc(C(=O)N3CCC4(CC3)CC(=O)c3nn(C(C)C)cc3O4)cc2[nH]1 [3.024] | 70
CCn1nc2c(c1C)OC1(CCN(C(=O)c3cc(C)c4ncn(C)c4c3)CC1)CC2=O [3.025] | 49
CCn1nc2c(c1C)OC1(CCN(C(=O)c3ccc4nc[nH]c4c3)CC1)CC2=O [3.026] | 168
Cc1nc2ccc(C(=O)N3CCC4(CC3)CC(=O)c3nn(C(C)(C)C)cc3O4)cc2n1C [3.027] | 42
CC(C)n1cc2c(n1)C(=O)CC1(CCN(C(=O)c3ccc4cn(C)nc4c3)CC1)O2 [5.001] | 675
CCn1nc2c(c1C)OC1(CCN(C(=O)c3ccc4ccc(OC)cc4c3)CC1)CC2=O [6.001] | 13
COc1ccc2ccc(C(=O)N3CCC4(CC3)CC(=O)c3nn(C(C)(C)C)cc3O4)cc2c1 [6.003] | 2
Cc1ccc2cc(C(=O)N3CCC4(CC3)CC(=O)c3nn(C(C)(C)C)cc3O4)ccc2c1 [6.005] | 48
COc1cccc2cc(C(=O)N3CCC4(CC3)CC(=O)c3nn(C(C)(C)C)cc3O4)ccc12 [6.006] | 7
CCn1nc2c(c1C)OC1(CCN(C(=O)c3ccc4ccccc4c3)CC1)CC2=O [6.007] | 40
CC(C)n1cc2c(n1)C(=O)CC1(CCN(C(=O)c3ccc4snc(N)c4c3)CC1)O2 [7.001] | 16
CC(C)(C)n1cc2c(n1)C(=O)CC1(CCN(C(=O)c3ccc4snc(N)c4c3)CC1)O2 [7.002] | 3
CCn1nc2c(c1C)OC1(CCN(C(=O)c3ccc4snc(N)c4c3)CC1)CC2=O [7.003] | 19
CC(C)(C)n1cc2c(n1)C(=O)CC1(CCN(C(=O)c3ccc4sncc4c3)CC1)O2 [7.004] | 23
CCn1nc2c(c1C)OC1(CCN(C(=O)c3ccc4sncc4c3)CC1)CC2=O [7.005] | 36
CC(C)n1cc2c(n1)C(=O)CC1(CCN(C(=O)c3ccc4sncc4c3)CC1)O2 [7.006] | 92

SMILES | IC50 [nM]
Cc1cc(C(=O)N2CCC3(CC2)CC(=O)c2nn(C(C)(C)C)cc2O3)cc2cnsc12 [7.007] | 5
CCn1nc2c(c1C)OC1(CCN(C(=O)c3cc(C)c4sncc4c3)CC1)CC2=O [7.008] | 93
Cc1cc(C(=O)N2CCC3(CC2)CC(=O)c2nn(C(C)C)cc2O3)cc2cnsc12 [7.009] | 18
Cc1cc(C(=O)N2CCC3(CC2)CC(=O)c2nn(C(C)(C)C)cc2O3)cc2ncn(C)c12 [8.001] | 36
Cc1cc(C(=O)N2CCC3(CC2)CC(=O)c2nn(C(C)C)cc2O3)cc2ncn(C)c12 [8.002] | 59
CCn1nc2c(c1C)OC1(CCN(C(=O)c3cc(C)c4c(c3)ncn4C)CC1)CC2=O [8.003] | 87
CCn1nc2c(c1C)OC1(CCN(C(=O)c3ccc4c(c3)nc(C)n4CC)CC1)CC2=O [8.004] | 481
CCn1nc2c(c1C)OC1(CCN(C(=O)c3ccc4c(c3)ncn4C)CC1)CC2=O [8.005] | 159
CCn1nc2c(c1C)OC1(CCN(C(=O)c3ccc4c(c3)nc(C)n4C)CC1)CC2=O [8.006] | 266
Cn1cnc2cc(C(=O)N3CCC4(CC3)CC(=O)c3nn(C(C)(C)C)cc3O4)ccc21 [8.007] | 58
CCn1c(C)nc2cc(C(=O)N3CCC4(CC3)CC(=O)c3nn(C(C)(C)C)cc3O4)ccc21 [8.008] | 52
Cc1nc2cc(C(=O)N3CCC4(CC3)CC(=O)c3nn(C(C)(C)C)cc3O4)ccc2n1C [8.009] | 47
Cn1c(O)nc2cc(C(=O)N3CCC4(CC3)CC(=O)c3nn(C(C)(C)C)cc3O4)ccc21 [8.010] | 18
CCn1nc2c(c1C)OC1(CCN(C(=O)c3ccc4c(c3)nc(O)n4C)CC1)CC2=O [8.011] | 186
CC(C)n1cc2c(n1)C(=O)CC1(CCN(C(=O)c3ccc4ocnc4c3)CC1)O2 [9.001] | 300
CC(C)(C)n1cc2c(n1)C(=O)CC1(CCN(C(=O)c3ccc4ocnc4c3)CC1)O2 [9.002] | 291
COc1cc(C(=O)N2CCC3(CC2)CC(=O)c2nn(C(C)(C)C)cc2O3)cc2nc(C)oc12 [9.003] | 29
COc1cc(C(=O)N2CCC3(CC2)CC(=O)c2nn(C(C)C)cc2O3)cc2nc(C)oc12 [9.004] | 83
CCn1nc2c(c1C)OC1(CCN(C(=O)c3cc(OC)c4oc(C)nc4c3)CC1)CC2=O [9.005] | 179
CCn1nc2c(c1C)OC1(CCN(C(=O)c3ccc4ncsc4c3)CC1)CC2=O [10.001] | 285

Further lines, results first:

IC50 [nM] | SMILES
33 | CCn1nc2c(c1C)OC1(CCN(C(=O)c3cc(C)c4[nH]c(=O)ccc4c3)CC1)CC2=O [11.001]
11 | Cc1cc(C(=O)N2CCC3(CC2)CC(=O)c2nn(C(C)(C)C)cc2O3)cc2ccc(=O)[nH]c12 [11.002]
299 | CCn1nc2c(c1C)OC1(CCN(C(=O)c3ccc4c(c3)N(C)C(=O)CC4)CC1)CC2=O [12.001]
36 | CCn1nc2c(c1C)OC1(CCN(C(=O)c3ccc4c(c3)NC(=O)CC4)CC1)CC2=O [12.002]
52 | CN1C(=O)CCc2ccc(C(=O)N3CCC4(CC3)CC(=O)c3nn(C(C)(C)C)cc3O4)cc21 [12.003]
14 | CC(C)(C)n1cc2c(n1)C(=O)CC1(CCN(C(=O)c3ccc4c(c3)NC(=O)CC4)CC1)O2 [12.004]
45 | CC(C)(C)n1cc2c(n1)C(=O)CC1(CCN(C(=O)c3ccc4c(c3)NC(=O)CO4)CC1)O2 [12.005]
421 | CCn1nc2c(c1C)OC1(CCN(C(=O)c3ccc4c(c3)CCC(=O)N4)CC1)CC2=O [13.001]
861 | CCn1nc2c(c1C)OC1(CCN(C(=O)c3ccc4c(c3)OCC(=O)N4)CC1)CC2=O [13.002]
49 | CC(C)(C)n1cc2c(n1)C(=O)CC1(CCN(C(=O)c3ccc4c(c3)OCC(=O)N4)CC1)O2 [13.003]
33 | CC(C)(C)n1cc2c(n1)C(=O)CC1(CCN(C(=O)c3ccc4c(c3)CCC(=O)N4)CC1)O2 [13.004]
7 | Cc1nc2cc(C(=O)N3CCC4(CC3)CC(=O)c3nn(C(C)(C)C)cc3O4)ccc2s1 [14.001]
176 | CCn1nc2c(c1C)OC1(CCN(C(=O)c3ccc4sc(C)nc4c3)CC1)CC2=O [14.002]
26 | Cc1ccc2cc(C(=O)N3CCC4(CC3)CC(=O)c3nn(C(C)(C)C)cc3O4)ccc2n1 [15.001]
11 | CC(C)(C)n1cc2c(n1)C(=O)CC1(CCN(C(=O)c3ccc4ncccc4c3)CC1)O2 [15.002]
179 | CCn1nc2c(c1C)OC1(CCN(C(=O)c3ccc4ncccc4c3)CC1)CC2=O [15.003]
12 | CC(C)(C)n1cc2c(n1)C(=O)CC1(CCN(C(=O)c3ccc4cccnc4c3)CC1)O2 [16.001]
250 | CCn1nc2c(c1C)OC1(CCN(C(=O)c3ccc4cccnc4c3)CC1)CC2=O [16.002]

IC50 [nM] | SMILES
33 | CC(C)(C)n1cc2c(n1)C(=O)CC1(CCN(C(=O)c3ccc4occc4c3)CC1)O2 [17.001]
283 | CCn1nc2c(c1C)OC1(CCN(C(=O)c3ccc4occc4c3)CC1)CC2=O [17.002]
3 | Cn1ccc2ccc(C(=O)N3CCC4(CC3)CC(=O)c3nn(C(C)(C)C)cc3O4)cc21 [18.001]
33 | CCn1nc2c(c1C)OC1(CCN(C(=O)c3ccc4ccn(C)c4c3)CC1)CC2=O [18.002]
9 | CC(C)(C)n1cc2c(n1)C(=O)CC1(CCN(C(=O)c3ccc4c(=O)[nH]ccc4c3)CC1)O2 [19.001]
28 | CC(C)(C)n1cc2c(n1)C(=O)CC1(CCN(C(=O)c3ccc4[nH]c(=O)oc4c3)CC1)O2 [20.001]
16 | CC(C)(C)n1cc2c(n1)C(=O)CC1(CCN(C(=O)c3ccc4cc[nH]c(=O)c4c3)CC1)O2 [21.001]
> 1000 | CC(C)n1cc2c(n1)C(=O)CC1(CCN(C(=O)c3ccc4oncc4c3)CC1)O2 [22.001]
518 | CC(C)(C)n1cc2c(n1)C(=O)CC1(CCN(C(=O)c3ccc4oncc4c3)CC1)O2 [22.002]
> 1000 | CCn1nc2c(c1C)OC1(CCN(C(=O)c3ccc4oncc4c3)CC1)CC2=O [22.003]
585 | Cc1noc2cc(C(=O)N3CCC4(CC3)CC(=O)c3nn(C(C)C)cc3O4)ccc12 [23.001]
55 | Cc1noc2cc(C(=O)N3CCC4(CC3)CC(=O)c3nn(C(C)(C)C)cc3O4)ccc12 [23.002]
335 | CCn1nc2c(c1C)OC1(CCN(C(=O)c3ccc4c(C)noc4c3)CC1)CC2=O [23.003]
> 1000 | CC(C)n1cc2c(n1)C(=O)CC1(CCN(C(=O)c3ccc4cnoc4c3)CC1)O2 [23.004]
158 | CC(C)(C)n1cc2c(n1)C(=O)CC1(CCN(C(=O)c3ccc4cnoc4c3)CC1)O2 [23.005]
23 | CC(C)(C)n1cc2c(n1)C(=O)CC1(CCN(C(=O)c3ccc4cnsc4c3)CC1)O2 [24.001]
198 | CC(C)n1cc2c(n1)C(=O)CC1(CCN(C(=O)c3ccc4cnsc4c3)CC1)O2 [24.002]
